Results from US20050113450A1, “Antibacterial agents” (priority 2002, published 2005).
≈ marks a conversion by molar mass, not a printed value.

Test system: SA 9218
Assay: MIC by standard agar dilution method
Format: cell-based
Details: Mueller Hinton agar, 10^4 to 10^5 cells per spot, incubated overnight at 35° C., lowest concentration that inhibits visible growth
Procedure, shortened: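 MIC read after overnight 35 °C incubation as lowest drug level preventing visible growth. Inoculum of roughly 10^4–10^5 cells per spot (0.5 McFarland, 1:20 in TSB) applied to Mueller Hinton agar containing serial 2-fold compound dilutions.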

Compound	MIC	SA 9218 MIC
N#Cc1ccc(NC(=O)c2cccc(CS(=O)(=O)N3CCCC3)c2)c(C(=O)O)c1 [PHA-630852, 5-cyano-2-({3-[(1-pyrrolidinylsulfonyl)methyl]benzoyl}amino)benzoic acid]	4 µg/mL (≈ 9.67 µM)	
N#Cc1ccc(NC(=O)c2cc(Br)cc(S(=O)(=O)N3CCc4ccccc43)c2)c(C(=O)O)c1 [PHA-630965]	0.25 µg/mL (≈ 0.475 µM)	
CN(c1ccc(Cl)cc1)S(=O)(=O)c1cc(Br)cc(C(=O)Nc2ccc(C#N)cc2C(=O)O)c1 [PHA-630966]	0.25 µg/mL (≈ 0.456 µM)	
CC(C)(C)N1C(=O)c2ccc(C(=O)Nc3ccc(Br)cc3C(=O)O)cc2C1=O [PHA-630989]	4 µg/mL (≈ 8.98 µM)	
CN(c1ccc(Cl)cc1)S(=O)(=O)c1cc(Br)cc(C(=O)Nc2ccc(Br)cc2C(=O)O)c1 [PHA-631082]	0.25 µg/mL (≈ 0.415 µM)	
N#Cc1ccc(NC(=O)c2cccc(S(=O)(=O)NC3CCc4ccccc43)c2)c(C(=O)O)c1 (stereo not drawn) [PHA-656807]	64 µg/mL (≈ 139 µM)	
N#Cc1ccc(NC(=O)c2cccc(S(=O)(=O)N(CCO)Cc3ccccc3)c2)c(C(=O)O)c1 [PHA-656808]	64 µg/mL (≈ 133 µM)	
CN(CC(O)c1ccccc1)S(=O)(=O)c1ccc(C(=O)Nc2ccc(C#N)cc2C(=O)O)cc1 (stereo not drawn) [PHA-656809]	64 µg/mL (≈ 133 µM)	
N#Cc1ccc(NC(=O)c2cccc(S(=O)(=O)N3CCN(c4ccc([N+](=O)[O-])cc4)CC3)c2)c(C(=O)O)c1 [PHA-656810]	2 µg/mL (≈ 3.73 µM)	
CC(C)CN(CC(C)C)S(=O)(=O)c1ccc(C(=O)Nc2ccc(C#N)cc2C(=O)O)cc1 [PHA-656811]	32 µg/mL (≈ 69.9 µM)	
O=C(Nc1ccc(-c2ccc(Cl)cc2)cc1C(=O)O)c1cccc(S(=O)(=O)N2CCOCC2)c1 [PHA-656820]	> 128 µg/mL	
CCCCN(CCO)S(=O)(=O)c1cccc(C(=O)Nc2ccc(C#N)cc2C(=O)O)c1 [PHA-656859]	16 µg/mL (≈ 35.9 µM)	
N#Cc1ccc(NC(=O)c2cccc(S(=O)(=O)Nc3ccc4c(c3)CCC4)c2)c(C(=O)O)c1 [PHA-656860]	8 µg/mL (≈ 17.3 µM)	
CN(CCC(O)c1ccccc1)S(=O)(=O)c1ccc(C(=O)Nc2ccc(C#N)cc2C(=O)O)cc1 (stereo not drawn) [PHA-656861]	32 µg/mL (≈ 64.8 µM)	
N#Cc1ccc(NC(=O)c2ccc(S(=O)(=O)N(CCO)Cc3ccccc3)cc2)c(C(=O)O)c1 [PHA-656862]	32 µg/mL (≈ 66.7 µM)	
N#Cc1ccc(NC(=O)c2cccc(S(=O)(=O)N3CCCC3CO)c2)c(C(=O)O)c1 (stereo not drawn) [PHA-656863]	8 µg/mL (≈ 18.6 µM)	
N#Cc1ccc(NC(=O)c2ccc(S(=O)(=O)NC3CCc4ccccc43)cc2)c(C(=O)O)c1 (stereo not drawn) [PHA-656866]	> 128 µg/mL	
CCCCN(CCO)S(=O)(=O)c1ccc(C(=O)Nc2ccc(C#N)cc2C(=O)O)cc1 [PHA-656867]	64 µg/mL (≈ 144 µM)	
N#Cc1ccc(NC(=O)c2ccc(S(=O)(=O)N3CCCC3CO)cc2)c(C(=O)O)c1 (stereo not drawn) [PHA-656868]	> 128 µg/mL	
C=CCN(C1CCCC1)S(=O)(=O)c1cccc(C(=O)Nc2ccc(C#N)cc2C(=O)O)c1 [PHA-656870]	8 µg/mL (≈ 17.6 µM)	

Compound	MIC	SA 9218 MIC
CC1CCCN1S(=O)(=O)c1ccc(C(=O)Nc2ccc(C#N)cc2C(=O)O)cc1 (stereo not drawn) [PHA-656871]	128 µg/mL (≈ 310 µM)	
CN(CCc1ccccn1)S(=O)(=O)c1cccc(C(=O)Nc2ccc(C#N)cc2C(=O)O)c1 [PHA-656872]	> 128 µg/mL	
O=C(Nc1ccc(Cl)cc1C(=O)O)c1cccc(C(=O)c2ccc3ccccc3n2)c1 [PHA-656880]	16 µg/mL (≈ 37.1 µM)	
O=C(COc1ccccc1)c1cccc(C(=O)Nc2ccc(Cl)cc2C(=O)O)c1 [PHA-656882]	16 µg/mL (≈ 39 µM)	
COC(=O)c1cccc(C(=O)c2ccc(C(=O)Nc3ccc(Cl)cc3C(=O)O)cc2)c1 [PHA-656883]	16 µg/mL (≈ 36.5 µM)	
CC(C)C(=O)c1cccc(C(=O)Nc2ccc(Cl)cc2C(=O)O)c1 [PHA-656884]	16 µg/mL (≈ 46.3 µM)	
COc1ccccc1C(=O)c1cccc(C(=O)Nc2ccc(Cl)cc2C(=O)O)c1 [PHA-656885]	16 µg/mL (≈ 39 µM)	
COC(=O)c1cccc(C(=O)c2cccc(C(=O)Nc3ccc(Cl)cc3C(=O)O)c2)c1 [PHA-656886]	16 µg/mL (≈ 36.5 µM)	
O=C(Nc1ccc(Cl)cc1C(=O)O)c1cccc(C(=O)c2cccs2)c1 [PHA-656887]	8 µg/mL (≈ 20.7 µM)	
O=C(Nc1ccc(Cl)cc1C(=O)O)c1cccc(C(=O)C2CCC2)c1 [PHA-656888]	16 µg/mL (≈ 44.7 µM)	
CC(C)(C)CC(=O)c1cccc(C(=O)Nc2ccc(Cl)cc2C(=O)O)c1 [PHA-656889]	16 µg/mL (≈ 42.8 µM)	
O=C(Nc1ccc(Cl)cc1C(=O)O)c1cccc(C(=O)C2CC2)c1 [PHA-656890]	16 µg/mL (≈ 46.5 µM)	
O=C(CCC1CCCC1)c1cccc(C(=O)Nc2ccc(Cl)cc2C(=O)O)c1 [PHA-656891]	16 µg/mL (≈ 40 µM)	
O=C(Nc1ccc(Cl)cc1C(=O)O)c1cccc(C(=O)c2ccc(F)c(F)c2)c1 [PHA-656892]	8 µg/mL (≈ 19.2 µM)	
O=C(Nc1ccc(Cl)cc1C(=O)O)c1cccc(C(=O)c2cc(F)cc(F)c2)c1 [PHA-656893]	8 µg/mL (≈ 19.2 µM)	
Cc1cccc(C(=O)c2cccc(C(=O)Nc3ccc(Cl)cc3C(=O)O)c2)c1 [PHA-656894]	16 µg/mL (≈ 40.6 µM)	
O=C(Nc1ccc(Cl)cc1C(=O)O)c1cc(Br)cc(S(=O)(=O)N2CCOCC2)c1 [PHA-662250]	1 µg/mL (≈ 1.99 µM)	
N#Cc1ccc(NC(=O)c2cccc(C(=O)N3CCOCC3)c2)c(C(=O)O)c1 [PHA-662412]	64 µg/mL (≈ 169 µM)	
N#Cc1ccc(NC(=S)c2cccc(S(=O)(=O)N3CCOCC3)c2)c(C(=O)O)c1 [PHA-662430]	1 µg/mL (≈ 2.32 µM)	
N#Cc1ccc(NC(=S)c2cccc(S(=O)(=O)N3CCCC3)c2)c(C(=O)O)c1 [PHA-662431]	1 µg/mL (≈ 2.41 µM)	

Continued, values first:

MIC	SA 9218 MIC	Compound
	32 µg/mL	N#Cc1ccc(NC(=O)c2cccc(S(=O)(=O)N3CCOCC3)c2)c(C(=O)O)c1 [PHA-662951]
4 µg/mL (≈ 8.49 µM)		Cc1cc(C(=O)Nc2ccc(Cl)cc2C(=O)O)cc(S(=O)(=O)N2CCc3ccccc32)c1 [PHA-664658]
32 µg/mL (≈ 76.5 µM)		O=Cc1ccc(NC(=O)c2cccc(S(=O)(=O)N3CCOCC3)c2)c(C(=O)O)c1 [PHA-666124]
0.5 µg/mL (≈ 1.11 µM)		CN(c1ccccc1N)S(=O)(=O)c1cccc(C(=O)Nc2ccc(C#N)cc2C(=O)O)c1 [PHA-670083]
> 128 µg/mL		O=C(Nc1ccc(/C=N/O)cc1C(=O)O)c1cccc(S(=O)(=O)N2CCOCC2)c1 [PHA-679756]
> 128 µg/mL		CO/N=C/c1ccc(NC(=O)c2cccc(S(=O)(=O)N3CCOCC3)c2)c(C(=O)O)c1 [PHA-679759]
1 µg/mL (≈ 1.77 µM)		O=Cc1ccc(NC(=O)c2cc(Br)cc(S(=O)(=O)N3CCc4cc(Cl)ccc43)c2)c(C(=O)O)c1 [PHA-681768]
64 µg/mL (≈ 125 µM)		CO/N=C/c1ccc(NC(=O)c2cccc(S(=O)(=O)N3CCc4cc(Cl)ccc43)c2)c(C(=O)O)c1 [PHA-682996]
4 µg/mL (≈ 8 µM)		O=C(Nc1ccc(/C=N/O)cc1C(=O)O)c1cccc(S(=O)(=O)N2CCc3cc(Cl)ccc32)c1 [PHA-686834]
4 µg/mL (≈ 8.35 µM)		N#Cc1ccc(C2CC2c2cccc(S(=O)(=O)N3CCc4cc(Cl)ccc43)c2)c(C(=O)O)c1 (stereo not drawn) [PHA-687511]
128 µg/mL (≈ 269 µM)		O=C(Nc1ccc(C#CCO)cc1C(=O)O)c1cccc(S(=O)(=O)N2CCc3ccccc32)c1 [PHA-687570]
4 µg/mL (≈ 8.43 µM)		O=C(O)c1cc(Cl)ccc1/C=C/c1cccc(S(=O)(=O)N2CCc3cc(Cl)ccc32)c1 [PHA-707801]
> 128 µg/mL		CC(=O)c1ccc(CC(=O)c2ccc(S(=O)(=O)N3CCc4cc(Cl)ccc43)cc2)c(C(=O)O)c1 [PHA-708922]
32 µg/mL (≈ 74 µM)		CC(=O)c1ccc(NC(=O)c2cccc(S(=O)(=O)N3CCOCC3)c2)c(C(=O)O)c1 [PHA-708923]
32 µg/mL (≈ 72.8 µM)		O=C(Nc1cccc(C(=O)Nc2ccc(Br)cc2C(=O)O)c1)c1ccccc1 [PHA-708976]
> 128 µg/mL		O=C(Nc1ccc(C(=O)Nc2ccc(Br)cc2C(=O)O)cc1)c1ccccc1 [PHA-708977]
32 µg/mL (≈ 74.6 µM)		O=C(Nc1ccc(Br)cc1C(=O)O)c1cccc(NC(=O)c2ccco2)c1 [PHA-708978]
> 128 µg/mL		O=C(Nc1ccc(Br)cc1C(=O)O)c1ccc(NC(=O)c2ccco2)cc1 [PHA-708979]
16 µg/mL (≈ 34.8 µM)		O=C(Cc1cccs1)Nc1cccc(C(=O)Nc2ccc(Br)cc2C(=O)O)c1 [PHA-708980]

MIC	SA 9218 MIC	Compound
16 µg/mL (≈ 33.2 µM)		Cc1cc(C)c(C(=O)Nc2cccc(C(=O)Nc3ccc(Br)cc3C(=O)O)c2)c(C)c1 [PHA-708981]
128 µg/mL (≈ 266 µM)		Cc1cc(C)c(C(=O)Nc2ccc(C(=O)Nc3ccc(Br)cc3C(=O)O)cc2)c(C)c1 [PHA-708982]
32 µg/mL (≈ 66.2 µM)		O=C(Nc1cccc(C(=O)Nc2ccc(Br)cc2C(=O)O)c1)c1ccc2c(c1)OCO2 [PHA-708983]
32 µg/mL (≈ 64.1 µM)		COc1ccc(C(=O)Nc2cccc(C(=O)Nc3ccc(Br)cc3C(=O)O)c2)c(OC)c1 [PHA-708984]
8 µg/mL (≈ 16.5 µM)		O=C(CSc1ccccc1)Nc1cccc(C(=O)Nc2ccc(Br)cc2C(=O)O)c1 [PHA-708985]
64 µg/mL (≈ 157 µM)		COCC(=O)Nc1cccc(C(=O)Nc2ccc(Br)cc2C(=O)O)c1 [PHA-708986]
> 128 µg/mL		COCC(=O)Nc1ccc(C(=O)Nc2ccc(Br)cc2C(=O)O)cc1 [PHA-708987]
32 µg/mL (≈ 70.4 µM)		O=C(Nc1ccccc1)Nc1cccc(C(=O)Nc2ccc(Br)cc2C(=O)O)c1 [PHA-708988]
8 µg/mL (≈ 16.3 µM)		O=C(Nc1cccc(C(=O)Nc2ccc(Br)cc2C(=O)O)c1)Nc1ccc(F)cc1F [PHA-708989]
8 µg/mL (≈ 16.7 µM)		N#Cc1cccc(NC(=O)Nc2cccc(C(=O)Nc3ccc(Br)cc3C(=O)O)c2)c1 [PHA-708990]
4 µg/mL (≈ 8.18 µM)		O=C(Nc1cccc(Cl)c1)Nc1cccc(C(=O)Nc2ccc(Br)cc2C(=O)O)c1 [PHA-708991]
4 µg/mL (≈ 7.99 µM)		CSc1cccc(NC(=O)Nc2cccc(C(=O)Nc3ccc(Br)cc3C(=O)O)c2)c1 [PHA-708992]
4 µg/mL (≈ 8.06 µM)		CC(=O)c1cccc(NC(=O)Nc2cccc(C(=O)Nc3ccc(Br)cc3C(=O)O)c2)c1 [PHA-708993]
8 µg/mL (≈ 16.8 µM)		O=C(Nc1ccc(Br)cc1C(=O)O)c1ccc(NS(=O)(=O)c2ccccc2)cc1 [PHA-708994]
0.125 µg/mL (≈ 0.223 µM)		O=C(Nc1ccc(Br)cc1C(=O)O)c1cccc(NS(=O)(=O)c2ccc(OC(F)(F)F)cc2)c1 [PHA-708995]
16 µg/mL (≈ 28.6 µM)		O=C(Nc1ccc(Br)cc1C(=O)O)c1ccc(NS(=O)(=O)c2ccc(OC(F)(F)F)cc2)cc1 [PHA-708996]
8 µg/mL (≈ 14.7 µM)		O=C(Nc1ccc(Br)cc1C(=O)O)c1ccc(NS(=O)(=O)c2ccc(Cl)c(Cl)c2)cc1 [PHA-708997]
128 µg/mL (≈ 279 µM)		O=C(Cc1cccs1)Nc1ccc(C(=O)Nc2ccc(Br)cc2C(=O)O)cc1 [PHA-713386]
128 µg/mL (≈ 270 µM)		O=C(Nc1ccc(Br)cc1C(=O)O)c1cccc(NC(=O)c2ccc([N+](=O)[O-])o2)c1 [PHA-713387]
